Measured values as given in PubChem BioAssay AID1963964 (Molecular Pharmacology Branch, DTP, NCI, 2024).

Tested on: 997726-040-R-J2-PDC tumor spheroids, viability
Assay: Anticancer human tumor 997726-040-R-J2-PDC patient-derived squamous cell lung carcinoma cell line growth inhibition [PI3K]
Settings: spheroids with HUVEC and MSC; for IC50: curve of first compound; for viability, T/C: stronger effect = lower value
In short: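 We assembled tumor spheroids that included a stromal compartment of HUVEC and MSCs, then exposed them to targeted agents alone and together with PI3K pathway inhibitors. Concentration series descended by half-log from clinically achievable Cmax levels. Viability served as the endpoint.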
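Further: spheroids exposed to compounds for seven days before readout.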

CCN1CCN(Cc2ccc(Nc3ncc(F)c(-c4cc(F)c5nc(C)n(C(C)C)c5c4)n3)nc2)CC1 + COc1c(OCCCN2CCOCC2)ccc2c3n(c(=NC(=O)c4cnc(N)nc4)nc12)CCN3
IC50 (second compound 0.00316 µM): > 1000 nM
IC50 (second compound 0.01 µM): 10.4 nM
IC50 (second compound 0.0316 µM): < 3.16 nM
IC50 (second compound 0.1 µM): < 3.16 nM
IC50 (second compound 0.316 µM): < 3.16 nM
IC50 (second compound 1 µM): < 3.16 nM
viability, T/C (second compound 0.00316 µM, first compound 0.00316 µM): 70%
viability, T/C (second compound 0.00316 µM, first compound 0.01 µM): 68.4%
viability, T/C (second compound 0.00316 µM, first compound 0.0316 µM): 62.2%
viability, T/C (second compound 0.00316 µM, first compound 0.1 µM): 54.2%
viability, T/C (second compound 0.00316 µM, first compound 0.316 µM): 55.1%
viability, T/C (second compound 0.00316 µM, first compound 1 µM): 65.3%
viability, T/C (second compound 0.01 µM, first compound 0.00316 µM): 61%
viability, T/C (second compound 0.01 µM, first compound 0.01 µM): 50.4%
viability, T/C (second compound 0.01 µM, first compound 0.0316 µM): 49.1%
viability, T/C (second compound 0.01 µM, first compound 0.1 µM): 41.3%
viability, T/C (second compound 0.01 µM, first compound 0.316 µM): 41.5%
viability, T/C (second compound 0.01 µM, first compound 1 µM): 60.8%
viability, T/C (second compound 0.0316 µM, first compound 0.00316 µM): 31.4%
viability, T/C (second compound 0.0316 µM, first compound 0.01 µM): 34.8%
viability, T/C (second compound 0.0316 µM, first compound 0.0316 µM): 29.5%
viability, T/C (second compound 0.0316 µM, first compound 0.1 µM): 28.1%
viability, T/C (second compound 0.0316 µM, first compound 0.316 µM): 31%
viability, T/C (second compound 0.0316 µM, first compound 1 µM): 33.7%
viability, T/C (second compound 0.1 µM, first compound 0.00316 µM): 22%
viability, T/C (second compound 0.1 µM, first compound 0.01 µM): 20.4%
viability, T/C (second compound 0.1 µM, first compound 0.0316 µM): 17.7%
viability, T/C (second compound 0.1 µM, first compound 0.1 µM): 16.6%
viability, T/C (second compound 0.1 µM, first compound 0.316 µM): 16.9%
viability, T/C (second compound 0.1 µM, first compound 1 µM): 19.3%
viability, T/C (second compound 0.316 µM, first compound 0.00316 µM): 5.44%
viability, T/C (second compound 0.316 µM, first compound 0.01 µM): 4.49%
viability, T/C (second compound 0.316 µM, first compound 0.0316 µM): 4.5%
viability, T/C (second compound 0.316 µM, first compound 0.1 µM): 6.65%
viability, T/C (second compound 0.316 µM, first compound 0.316 µM): 6.95%
viability, T/C (second compound 0.316 µM, first compound 1 µM): 7.72%
viability, T/C (second compound 1 µM, first compound 0.00316 µM): 1.02%
viability, T/C (second compound 1 µM, first compound 0.01 µM): 1.63%
viability, T/C (second compound 1 µM, first compound 0.0316 µM): 1.24%
viability, T/C (second compound 1 µM, first compound 0.1 µM): 1.32%
viability, T/C (second compound 1 µM, first compound 0.316 µM): 2.23%
viability, T/C (second compound 1 µM, first compound 1 µM): 3.91%
